In ChEMBL document CHEMBL4130536, “Deinococcucins A-D, Aminoglycolipids from Deinococcus sp., a Gut Bacterium of the Carpenter Ant Camponotus japonicus” (J Nat Prod, 2017):

What was measured:
HCT-116 = assay: Cytotoxicity in human HCT116 cells assessed as reduction in cell viability incubated for 72 hrs by SRB assay; format: functional, cell-based; conditions: HCT-116, 72 h
Escherichia coli = assay: Antimicrobial activity against Escherichia coli incubated for 24 hrs; format: functional
Candida albicans = assay: Antimicrobial activity against Candida albicans incubated for 24 hrs; format: functional
Salmonella enterica = assay: Antimicrobial activity against Salmonella enterica incubated for 24 hrs; format: functional
A549 = assay: Cytotoxicity in human A549 cells assessed as reduction in cell viability incubated for 72 hrs by SRB assay; format: functional, cell-based; conditions: A549, 72 h
Bacillus subtilis = assay: Antimicrobial activity against Bacillus subtilis incubated for 24 hrs; format: functional
Staphylococcus aureus = assay: Antimicrobial activity against Staphylococcus aureus incubated for 24 hrs; format: functional
Aspergillus fumigatus = assay: Antimicrobial activity against Aspergillus fumigatus incubated for 24 hrs; format: functional
Kocuria rhizophila = assay: Antimicrobial activity against Kocuria rhizophila incubated for 24 hrs; format: functional
MDA-MB-231 = assay: Cytotoxicity in human MDA-MB-231 cells assessed as reduction in cell viability incubated for 72 hrs by SRB assay; format: functional, cell-based; conditions: MDA-MB-231, 72 h
K562 = assay: Cytotoxicity in human K562 cells assessed as reduction in cell viability incubated for 72 hrs by SRB assay; format: functional, cell-based; conditions: K562, 72 h
Proteus hauseri = assay: Antimicrobial activity against Proteus hauseri incubated for 24 hrs; format: functional
SNU-638 = assay: Cytotoxicity in human SNU638 cells assessed as reduction in cell viability incubated for 72 hrs by SRB assay; format: functional, cell-based; conditions: SNU-638, 72 h
SK-HEP1 = assay: Cytotoxicity in human SKHEP1 cells assessed as reduction in cell viability incubated for 72 hrs by SRB assay; format: functional, cell-based; conditions: SK-HEP1, 72 h
[1] = Toxicity in mouse Hepa1c1c7 cells at 2.5 to 20 uM; format: cell-based

Structure (SMILES): CCCCCCCCCCCCCCCCCNC(=O)[C@H](O)CO[C@H]1O[C@H](CO)[C@@H](O)[C@H](O)[C@H]1NC(C)=O
- IC50 (HCT-116): > 10 µM
- MIC (Escherichia coli): > 128 µM
- MIC (Candida albicans): > 128 µM
- MIC (Salmonella enterica): > 128 µM
- IC50 (A549): > 10 µM
- MIC (Bacillus subtilis): > 128 µM
- MIC (Staphylococcus aureus): > 128 µM
- MIC (Aspergillus fumigatus): > 128 µM
- MIC (Kocuria rhizophila): > 128 µM
- IC50 (MDA-MB-231): > 10 µM
- IC50 (K562): > 10 µM
- MIC (Proteus hauseri): > 128 µM
- IC50 (SNU-638): > 10 µM
- IC50 (SK-HEP1): > 10 µM

Structure (SMILES): CCCCCCC/C=C\CCCCCCCCNC(=O)[C@H](O)CO[C@H]1O[C@H](CO)[C@@H](O)[C@H](O)[C@H]1NC(C)=O
- IC50 (HCT-116): > 10 µM
- MIC (Escherichia coli): > 128 µM
- MIC (Candida albicans): > 128 µM
- MIC (Salmonella enterica): > 128 µM
- IC50 (A549): > 10 µM
- MIC (Bacillus subtilis): > 128 µM
- MIC (Staphylococcus aureus): > 128 µM
- MIC (Aspergillus fumigatus): > 128 µM
- MIC (Kocuria rhizophila): > 128 µM
- IC50 (MDA-MB-231): > 10 µM
- IC50 (K562): > 10 µM
- MIC (Proteus hauseri): > 128 µM
- IC50 (SNU-638): > 10 µM
- IC50 (SK-HEP1): > 10 µM

Structure (SMILES): CCCCCCCCCCCCCCCCNC(=O)[C@H](O)CO[C@H]1O[C@H](CO)[C@@H](O)[C@H](O)[C@H]1NC(C)=O
- IC50 (HCT-116): > 10 µM
- Activity [1]: Non-Toxic
- MIC (Escherichia coli): > 128 µM
- MIC (Candida albicans): > 128 µM
- MIC (Salmonella enterica): > 128 µM
- IC50 (A549): > 10 µM
- MIC (Bacillus subtilis): > 128 µM
- MIC (Staphylococcus aureus): > 128 µM
- MIC (Aspergillus fumigatus): > 128 µM
- MIC (Kocuria rhizophila): > 128 µM
- IC50 (MDA-MB-231): > 10 µM
- IC50 (K562): > 10 µM
- MIC (Proteus hauseri): > 128 µM
- IC50 (SNU-638): > 10 µM
- IC50 (SK-HEP1): > 10 µM

Structure (SMILES): CCCCCC/C=C\CCCCCCCCNC(=O)[C@H](O)CO[C@H]1O[C@H](CO)[C@@H](O)[C@H](O)[C@H]1NC(C)=O
- IC50 (HCT-116): > 10 µM
- Activity [1]: Non-Toxic
- MIC (Escherichia coli): > 128 µM
- MIC (Candida albicans): > 128 µM
- MIC (Salmonella enterica): > 128 µM
- IC50 (A549): > 10 µM
- MIC (Bacillus subtilis): > 128 µM
- MIC (Staphylococcus aureus): > 128 µM
- MIC (Aspergillus fumigatus): > 128 µM
- MIC (Kocuria rhizophila): > 128 µM
- IC50 (MDA-MB-231): > 10 µM
- IC50 (K562): > 10 µM
- MIC (Proteus hauseri): > 128 µM
- IC50 (SNU-638): > 10 µM
- IC50 (SK-HEP1): > 10 µM
